Measurements reported in US5686454A, “Camphorcarbonyl” (Merck & Co., Inc., priority 1996, dated 1997).

Each compound was assayed against T1, uterine OT receptors (Rattus norvegicus, UniProt P70536) (assay: Radioligand binding: competition of [^3 H]oxytocin binding to rat uterine membranes). Conditions: 1 nM [^3 H]OT, rat uterus membranes, 60 minutes, 22° C., pH 7.4; read-out: IC50.
T1 construct: crude membrane preparation of uteri; from tissue; host or cells: uterus of DES-treated rats, crude membranes
T1 sequence (P70536 1-388): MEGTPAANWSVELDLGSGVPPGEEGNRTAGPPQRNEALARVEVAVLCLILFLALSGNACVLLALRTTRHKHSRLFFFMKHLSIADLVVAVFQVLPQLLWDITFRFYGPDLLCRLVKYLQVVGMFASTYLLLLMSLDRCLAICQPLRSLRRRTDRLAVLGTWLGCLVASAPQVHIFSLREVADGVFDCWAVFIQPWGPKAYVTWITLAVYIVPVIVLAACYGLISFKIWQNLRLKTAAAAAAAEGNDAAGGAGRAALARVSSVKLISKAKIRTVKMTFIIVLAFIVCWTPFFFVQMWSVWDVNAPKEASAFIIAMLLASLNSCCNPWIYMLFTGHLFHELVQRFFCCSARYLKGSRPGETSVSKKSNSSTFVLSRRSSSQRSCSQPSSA
Source text: RADIOGLIGAND BINDING ASSAYS
The high affinity binding of [^3 H]

IC50 | SMILES
0.054 µM | COC(=O)CCN1CCC(C(=O)NCC(C)C2(O)CC3CCC2(CS(=O)(=O)N2CCN(c4ccccc4C)CC2)C3(C)C)CC1 (stereo not drawn) [Example 91, 1-((7,7-Dimethyl-2-exo-hydroxy-2-endo-2-(1-(4-(1-methoxycarbonylethyl)-piperidinylcarbonyl)-amino)propylbicyclo(2.2.1)heptan-1-yl)methane-sulfonyl)-4-(2-methylphenyl)piperazine]
0.15 µM | Cc1ccccc1N1CCN(S(=O)(=O)C[C@]23CC[C@H](C[C@]2(O)C(C)C#N)C3(C)C)CC1 (stereo partly drawn) [Example 38, 1-((7,7-Dimethyl-2-exo-hydroxy-2-endo-(1-cyano)ethyl-bicyclo(2.2.1)heptan-1-yl)methanesulfonyl)-4-(2-methylphenyl)piperazine]
0.0054 µM | Cc1ccccc1N1CCN(S(=O)(=O)CC23CCC(CC2NC(=O)[C@H](CCS(C)(=O)=O)NC(=O)Cc2c[nH]cn2)C3(C)C)CC1 (stereo partly drawn) [Example 73, 1-((7,7-Dimethyl-2-endo-(2S-(imidazol-4-ylacetyl-amino)-4-(methylsulfonyl)butyramido)-bicyclo(2.2.1)-heptan-1-yl)methanesulfonyl)-4-(2-methylphenyl)-piperazine]
0.8 µM | Cc1ccccc1N1CCN(C(=O)C2C3CCC(C)(C2O)C3(C)C)CC1 (stereo not shown) [Example 2, 1-[(3-hydroxy-4,7,7-trimethylbicyclo[2.2.1]hept-2-yl)carbonyl]-4-(2-methylphenyl)-piperazine]
0.12 µM | Cc1ccccc1N1CCN(S(=O)(=O)CC23CCC(C=C2C(=O)NCCc2c[nH]cn2)C3(C)C)CC1 (stereo not shown) [Example 58, 1-((7,7-Dimethyl-2-(4-imidazolyl)ethylaminocarbonyl-bicyclo(2.2.1)hept-2-en-1-yl)methanesulfonyl)-4-(2-methylphenyl)piperazine]
0.0153 µM | Cc1ccccc1N1CCN(C(=O)C2C3CCC(C)(C2NC(=O)C(N)CCS(C)(=O)=O)C3(C)C)CC1 (stereo not drawn) [Example 12, 1-(2-methylphenyl)-4-[(4,7,7-trimethyl-3-endo-(4-methylsulfonyl-2-amino)butanoylaminobicyclo[2.2.1]hept-2-endo-yl)carbonyl]-piperazine]
0.02 µM | COC(=O)CCN1CCC[C@H]1C(=O)NCC(C)C1(O)CC2CCC1(CS(=O)(=O)N1CCN(c3ccccc3C)CC1)C2(C)C (stereo partly drawn) [Example 81, 1-((7,7-Dimethyl-2-exo-hydroxy-2-endo-2-(1-(1--N -(methoxycarbonylethyl)prolyl)amino)propylbicyclo-(2.2.1)heptan-1-yl)methanesulfonyl)-4-(2-methyl-phenyl)piperazine]
0.027 µM | CCOC(=O)CCN1CCCC1C(=O)NC1C(C(=O)N2CCN(c3ccccc3C)CC2)C2CCC1(C)C2(C)C (stereo not shown) [Example 16]

Same assay, conditions: IC50, 1 nM [^3 H]OT, rat uterus membranes, 60 minutes, 22° C., pH 7.4

SMILES | IC50
Cc1ccccc1N1CCN(S(=O)(=O)C[C@]23CC[C@H](C[C@]2(O)C(C)CNC(=O)C2CN4CCC2CC4)C3(C)C)CC1 (stereo partly drawn) [Example 44, 1-((7,7-Dimethyl-2-exo-hydroxy-2-endo-2-(1-(quinuclidin-3-yl-carbonyl)amino)propyl-bicyclo(2.2.1)heptan-1-yl)methanesulfonyl)-4-(2-methylphenyl)piperazine] | 0.018 µM

Same assay, conditions: read-out: % inhibition at 1000 nM

inhibition at 1 µM | SMILES
78% | Cc1ccccc1N1CCN(S(=O)(=O)C[C@]23CC[C@H](C=C2C(=O)O)C3(C)C)CC1 [Example 57, 1-((7,7-Dimethyl-2-carboxy-bicyclo(2.2.1)hept-2-en-1-yl)methanesulfonyl)-4-(2-methylphenyl)piperazine]
72% | Cc1ccccc1N1CCN(S(=O)(=O)C[C@]23CC[C@H](C[C@]2(O)CNCC(C)C)C3(C)C)CC1 [Example 55, 1-((7,7-Dimethyl-2-exo-hydroxy-2-endo-isobutylamino-methylbicyclo(2.2.1)heptan-1-yl)methanesulfonyl)-4-(2-methylphenyl)piperazine]
44% | Cc1ccccc1N1CCN(S(=O)(=O)C[C@]23CC[C@H](CC2=CCNCC(C)C)C3(C)C)CC1 [Example 50, 1-((7,7-dimethyl-2-(2-isobutylamino)ethylidine-bicyclo(2.2.1)heptan-1-yl)methanesulfonlyl)-4-(2-methylphenyl)piperazine]
54% | Cc1ccccc1N1CCN(S(=O)(=O)CC23CCC(CC2NC(=O)[C@H](CCS(C)(=O)=O)N(C)C)C3(C)C)CC1 (stereo partly drawn) [Example 74, 1-((7,7-Dimethyl-2-endo-(2S-(dimethylamino)-4-(methylsulfonyl)butyramido)-bicyclo(2.2.1)heptan-1-yl)methanesulfonyl)-4-(2-methylphenyl)piperazine]
75% | Cc1ccccc1N1CCN(C(=O)C2C3CCC(C)(C2NC(=O)C(N)CCS(C)(=O)=O)C3(C)C)CC1 (stereo not drawn) [Example 10, 1-(2-methylphenyl)-4-[(4,7,7-trimethyl-3-exo-(4-methylsulfonyl-2-amino)butanoylaminobicyclo[2.2.1]hept-2-endo-yl)carbonyl]-piperazine]
78% | CCOC(=O)C(CC=C1CC2CCC1(CS(=O)(=O)N1CCN(c3ccccc3C)CC1)C2(C)C)(NC(C)=O)C(=O)OCC (stereo not shown) [Example 64, 1-((7,7-Dimethyl-2-(3-acetamido-3,3'-di(ethoxycarbonyl))propylidine-bicyclo(2.2.1)heptan-1-yl)methanesulfonyl)-4-(2-methylphenyl)piperazine]
53% | Cc1ccccc1N1CCN(C(=O)C2(CC(=O)O)C(=O)C3(C)CCC2C3(C)C)CC1 (stereo not shown) [Example 4, 1-(2-methylphenyl)-4-[(4,7,7-trimethyl-3-oxo-2-carboxymethyl-bicyclo[2.2.1]hept-2-yl)carbonyl]-piperazine]
